In US20230121245A1, “REGENERATIVE NONSTEROIDAL ANTI-INFLAMMATORY COMPOSITIONS, METHODS OF PRODUCTION, AND METHODS OF USE THEREOF” (CROWN SCIENTIFIC, L.L.C., priority 2021, published 2023):

Test system: TNFα
Assay: LPS induced TNFα response in PBMCs (monocyte/macrophage model)
Format: cell-based, human
Conditions: 0.01-100 μM, compared to vehicle control (0.13% DMSO), 100 ng LPS, 24 hours
Description: Fresh leukoreduction system (LRS) cones of healthy donors aged 18-80 years old were purchased from Oklahoma Blood Institute. PBMCs were isolated from LRS cones using EasySep™ Direct Human PBMC Isolation Kit (cat #19654, StemCell Technologies) as per manufacturer's specifications. 1.5 million PBMCs were seeded in 0.5 ml of RPMI (11835030, Gibco) supplemented with 5% HPL (Millcreek), lx Glutamax (35050061, Gibco), 1×NEAA (11140050, Gibco) and 2 U/ml heparin (25021040030, Sagent Pharmaceuticals) in a 24 well plate and rested overnight. The following day, PBMCs were co-stimulated with 100 ng of lipopolysaccharide (LPS, 00-4976-93, Invitrogen) and different doses RNSA in a volume of 0.5 ml. RNSA doses were prepared in saline (R5201-01, Braun) supplemented with 5% HPL and 2 U/ml heparin. Betamethasone (Cayman, 20363), a positive control, was resuspended in DMSO (D4540, Sigma) and administered to PBMCs at different doses to a final 0.13% DMSO concentration. Vehicle for RNSA was 50% saline and for Betamethasone 0.13% DMSO for a 1 ml reaction. All samples were tested in technical triplicates. Treatment duration was 24 hours for all groups. After 24 hours, the supernatant was collected, spun at 5,000 g for 10 minutes and the cell free supernatant stored at −80 C. To detect TNFα, hTNFα Simple Plex assay quantification was performed on ELLA ELISA based detection method (ProteinSimple).

C[C@H]1C[C@H]2[C@@H]3CCC4=CC(=O)C=C[C@]4(C)[C@@]3(F)[C@@H](O)C[C@]2(C)[C@@]1(O)C(=O)CO [Betamethasone]
attenuation of TNFα response: 20-68%
